Reference: patent US20150190479A1, “DELIVERY OF CHOLESTERYL ESTER TO STEROIDOGENIC TISSUES” (ALPHACORE PHARMA, LLC, priority 2010, published 2015)

Experiments:
Assay type in all cases: in vivo, human
[1] = Adrenal function of a trauma patient under treatment; settings: car accident victim; combination of 150 mg/day anacetrapib and LCAT injection (40 mg) every 5 days
Text: The efficacy of a particular dose may be assessed by reference noting the change in HDL-C or improvement in certain physiologic parameters. Suitable physiologic parameters include, but are not limited to, improved cortisol response to ACTH, improved cortisol levels, change in circulating levels of steroids, e.g., corticosteroids, glucocorticoids, cortisol, testosterone, estrogen, decreased inflammatory cytokines, and improved liver function.
A victim of a car accident with abdominal injuries is brought to the hospital. Their HDL is 55 mg/dl. As HDL routinely falls after trauma, the physician prescribes 150 mg/day anacetrapib and an injection of LCAT (40 mg) every 5 days until the patient is fully stabilized. This treatment maintained the patient's HDL at >75 mg/dl throughout their recovery. Adrenal function was maintained.

[2] = Testosterone level and complaints of a patient with low testosterone; settings: HDL-C 25 mg/dl, 150 mg/day
Protocol: A patient complains of lethargy and impotence. Their testosterone levels are low, and their HDL-C is 25 mg/dl. The physician prescribes ancetrapib at a dose of 150 mg/day. […] The patient's original complaints are absent.

[3] = HDL-C level of a patient after treatment (illustrative patient examples); settings: patient admitted for major surgery, HDL-C 25 mg/dl at admission; LCAT 40 mg given 24 hours prior to surgery
Text: Measurement of biomarker levels and parameters described above may be measured using methods that are well known in the art. For example, change in HDL-CE level is easily detected with standard clinical laboratory procedures. Likewise, measuring the adrenal response to ACTH is commonly used in patients with suspected adrenal insufficiency. One of ordinary skill in the art would understand the significance of the results and may choose to adjust the dose based on assessments such as those described above.
A patient is admitted into the hospital for major surgery. The patients HDL-C level is 25 mg/dl. […] The patient is administered a dose of LCAT of 40 mg 24 hours prior to surgery. The patient's HDL-C is measured prior to surgery, and is now above 50 mg/di, thus greatly reducing risk of infection and/or death following the procedure.
A burn victim is stabilized in the hospital with an HDL-C level of 12 mg/dl. […] The patient is infused with rHDL at a dose of 25 mg/kg over a period of 5 hours, raising the patient's HDL-C by 50 mg/dl. In order to maintain this level of HDL, the patient is administered a 60 mg dose of LCAT. Cortisol levels are monitored periodically to determine if the adrenal function is normalized. […]
A patient is beginning to enter septic shock. […] Cortisol levels are monitored to determine if the adrenal function is normalized. […]

Molecule	adrenal function [1]	patient's original complaints (lethargy and impotence) [2]	testosterone level on recheck ([2]; rechecked 'For weeks later')	patient's HDL-C measured prior to surgery [3]
COc1cc(F)c(C(C)C)cc1-c1ccc(C(F)(F)F)cc1CN1C(=O)O[C@H](c2cc(C(F)(F)F)cc(C(F)(F)F)c2)[C@@H]1C [anacetrapib]	maintained	absent	within normal levels	
lecithin-cholesterol acyltransferase (protein, UniProt P04180 25-440, looked up, enzyme) Phosphatidylcholine-sterol …: FWLLNVLFPPHTTPKAELSNHTRPVILVPGCLGNQLEAKLDKPDVVNWMCYRKTEDFFTIWLDLNMFLPLGVDCWIDNTRVVYNRSSGLVSNAPGVQIRVPGFGKTYSVEYLDSSKLAGYLHTLVQNLVNNGYVRDETVRAAPYDWRLEPGQQEEYYRKLAGLVEEMHAAYGKPVFLIGHSLGCLHLLYFLLRQPQAWKDRFIDGFISLGAPWGGSIKPMLVLASGDNQGIPIMSSIKLKEEQRITTTSPWMFPSRMAWPEDHVFISTPSFNYTGRDFQRFFADLHFEEGWYMWLQSRDLLAGLPAPGVEVYCLYGVGLPTPRTYIYDHGFPYTDPVGVLYEDGDDTVATRSTELCGLWQGRQPQPVHLLPLHGIQHLNMVFSNLTLEHINAILLGAYRQGPPASPTASPEPPPPE	maintained			above 50 mg/di
